Consider three molecules from patent US20080274998A1, “Disaccharide Molecules and Derivatives Thereof and Methods of Using Same” (YEDA RESEARCH AND DEVELOPMENT CO. LTD., priority 2004, published 2008).

One test addresses T1, recombinant moesin (Homo sapiens, UniProt P26038).
T1 construct: The plasmid pGEX-KG-human moesin residues 1-577 (pGhuMo); GST (cleaved yes); made in house; host or cells: Escherichia coli
In words: Binding of heparin-disaccharide to immobilized recombinant moesin (plate assay, anti-heparan sulfate mAb detection). Conditions: plates coated with recombinant moesin or purified BSA, detection with anti-heparan sulfate mAb and anti-rat IgM Ab, duplicate. The method, then: Following coating, DS-9392 was added to the plates, incubated and washed. Detection was performed using an anti-heparan sulfate mAb followed by an anti-rat IgM Ab. Each experiment was performed in duplicate. The results represent mean and SD.
The plasmid pGEX-KG-human moesin residues 1-577 (pGhuMo) (provided by Prof. Furthhmayer [Stanford, Calif.]) contains human moesin as a fusion protein to glutathione S-transferase (GST). Escherichia coli (E. coli) bacteria were transformed with pGhuMo and grown in L-broth containing penicillin (100 μg/ml). These bacteria were induced to express the fusion protein with 100 μM isopropyl β-D-thiogalactopyranoside (IPTG). The recombinant protein was bound to a glutathione-agarose column (Sigma) and cleaved with thrombin (Pharmacia; Piscataway, N.J.). The purified protein was dialyzed against PBS at 4° C. and stored at −70^cC. The purity and integrity of the protein were determined by size separation using SDS-polyaclrylamide gel electrophoresis (PAGE), Coomassie blue staining, and Western blotting with the anti-human moesin mAb clone 38/87. The protein was quantitated by densitometric analysis of recombinant moesin and known amounts of BSA, which were used to construct a standard curve.
Since moesin binds to heparin and heparan sulfate (1), disaccharide (DS) derived from heparin was also tested to see if it could also bind to moesin.

The next test deals with T cells. In words: T cell adhesion to fibronectin-coated wells after DS pretreatment and activation. In kind it is cell-based, human. Conditions: T cells pretreated with DS at 1 ng/ml, 30 minutes; chemoattractants MIP-1β, SDF-1α or RANTES 20 ng/ml each. On the procedure:
T cells were pretreated with DS9392 (A), DS9267 or DS8892 (B), at 1 ng/ml, 30 minutes incubation for each, and were then seeded on fibronectin (FN)-coated microtiter wells and activated with either PMA (50 ng/ml), anti-CD3 mAb (15 μg/ml), IL-2 (10 IU/ml) or one of the chemoattractants, MIP-Iβ, SDF-Iα or RANTES (20 ng/ml each). T cell adhesion was then measured.
Human T cells were purified from the peripheral blood of healthy donors. Briefly, human peripheral blood was isolated on Ficoll gradients, washed, resuspended in PBS containing 3% heat-inactivated FCS (Bet Haemek, Israel), and incubated (45 min, 37° C., 7% CO2-humidified atmosphere) on nylon-wool columns (NovaMed; Jerusalem, Israel). Non-adherent cells were eluted and washed, and platelets were removed by centrifugation (700 rpm, 15 min, 18° C.). Residual monocytes were removed by incubation of the cells on tissue culture plates (2 h, 37° C.), after which non-adherent cells were collected. The CD3^+ content of these PBLs was >95%.
Without wishing to be limited by a single hypothesis, binding of the DS to moesin would appear to promote inhibition of T-cell adhesion and migration.

The subject of a further test is Jurkat cells. In words: 51Cr-labeled Jurkat cell adhesion to fibronectin. In kind it is cell-based. The following applies: DS-9267 100 ng/ml; fibronectin 1 μg/ml; adherent cells determined after 30 minutes. The method, then:
The amount of adherent cells was determined 30 minutes later. Non-adherent cells were washed away and the remaining bound cells were lysed. The radioactivity of lysates, representing the amount of fibronectin-adherent cells, was determined using a γ-counter. The results represent the percentage of cells that were bound to the wells from total cells that were added to each well.
Jurkat cells, a CD4+ T-lymphoma cell line, were maintained in medium consisted of RPMI 1640 (Bet Haemek, Israel), supplemented with 10% cosmic calf serum (HyClone Laboratories), 2 mM L-glutamin and 1% Pen-Strep (Bet Haemek, Israel), at 37° C., in an atmosphere of 5% CO2.
It was shown that certain heparin- and heparan sulfate-derived DS induced, in a dose-dependent manner, the adhesion of human T cells to both ECM and immobilized fibronectin (6). This adhesion appears to involve β1 integrin recognition and activation and is associated with specific intracellular activation pathways (6). Since moesin is expressed on T cells, antibody to moesin was examined for the potential to block the ability of DS to induce adhesion in T cells.

The subject of the next test is HT-29 cells. In words: TNFα-induced IL-8 / IL-1β secretion from HT-29 cells (ELISA). In kind it is cell-based. The following applies: DS-9267 pre-incubated 30 min with increasing concentrations of recombinant human moesin; TNFα-stimulated HT-29 cells, 24 hours. The method, then: Following culture, the cells were pre-incubated for 30 minutes with either anti-moesin or control antibody (anti HSP-60). Then DS-9267 was added for 30 minutes, after which TNFα (200 ng/ml) was added and the cells were incubated for additional 20 hours. Subsequently, the supernatants were collected and the level of IL-8 was determined.
Following culture, the cells were supplemented with fresh medium and the DS-9267 which was pre-incubated for 30 minutes with recombinant moesin at the indicated concentrations was added to all cells except for the controls. The culture was continued for 24 hours. Subsequently, the supernatants were collected and assayed for the concentrations of IL-8 (A) and IL-1β (B).
Epithelial cells were grown as confluent monolayer's in 24-well tissue culture plates. […] Following culture, the supernatants were harvested and analyzed for cytokine secretion. […]
IL-8 concentration was measured by ELISA. […] IL-1β concentration was measured by an ELISA kit (Genzyme, Cambridge, Mass.) according to the manufacturer's instructions.
It has been shown that disaccharide molecules derived from heparin and from heparan sulfate can inhibit the secretion of IL-8 and IL-1β by HT-29 cells. […] Subsequently, the cells were treated with TNFα and the secretion of IL-8 was assessed. […]

T1 sequence (P26038 whole entry, the tested form may be a part): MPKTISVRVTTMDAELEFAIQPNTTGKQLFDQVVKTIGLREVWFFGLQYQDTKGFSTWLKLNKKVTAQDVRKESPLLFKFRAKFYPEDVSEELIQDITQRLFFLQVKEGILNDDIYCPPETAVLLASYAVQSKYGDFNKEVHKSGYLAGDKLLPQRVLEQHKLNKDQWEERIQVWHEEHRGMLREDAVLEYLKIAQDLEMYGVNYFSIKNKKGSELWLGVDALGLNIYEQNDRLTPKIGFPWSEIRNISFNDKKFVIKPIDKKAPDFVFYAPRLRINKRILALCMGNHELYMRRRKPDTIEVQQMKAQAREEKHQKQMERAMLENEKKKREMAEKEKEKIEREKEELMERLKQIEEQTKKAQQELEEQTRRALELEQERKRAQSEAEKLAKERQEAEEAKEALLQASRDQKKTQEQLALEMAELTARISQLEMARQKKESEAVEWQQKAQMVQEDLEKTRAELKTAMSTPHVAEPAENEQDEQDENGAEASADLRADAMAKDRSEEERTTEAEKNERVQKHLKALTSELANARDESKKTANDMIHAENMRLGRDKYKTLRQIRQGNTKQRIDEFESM

Turning to `O=C(O)C1=CC(O)C(OS(=O)(=O)O)C(OC2C(CO)OC(O)C(NS(=O)(=O)O)C2O)O1` (stereo not drawn) [DS-9392, 2-O-Sulfate-4-deoxy-4-en-iduronic acid-(alpha-1,4)-2-deoxy-2-N-sulfateglucosamine], the “binding to immobilized recombinant moesin versus BSA” value at recombinant moesin was “The difference was significant”; at recombinant moesin (listed as Heparin-DS) it was “binds to moesin, and not to BSA”. The “chemokine-mediated T cell adhesion to fibronectin” value with T cells is “specifically inhibits chemokine-mediated T cell adhesion”.
On to `O=C(O)C1=CC(O)C(OS(=O)(=O)O)C(OC2C(COS(=O)(=O)O)OC(O)C(NS(=O)(=O)O)C2O)O1` (stereo not drawn) [DS-9267, 2-O-sulfate-4-deoxy-4-en-iduronic acid-(alpha.-1,4)-2-deoxy-2-N-sulfate-6-O-sulfateglucosamine], for which the “Jurkat cell adhesion to fibronectin” value in the test on Jurkat cells is “induced”. Moreover, the “chemokine-mediated T cell adhesion to fibronectin” value in the test with T cells is “specifically inhibits chemokine-mediated T cell adhesion”.

B1: recombinant moesin: Recombinant human moesin residues 1-577, expressed in E. coli as GST fusion and cleaved with thrombin (protein, UniProt P26038 2-577, looked up)
Moesin: PKTISVRVTTMDAELEFAIQPNTTGKQLFDQVVKTIGLREVWFFGLQYQDTKGFSTWLKLNKKVTAQDVRKESPLLFKFRAKFYPEDVSEELIQDITQRLFFLQVKEGILNDDIYCPPETAVLLASYAVQSKYGDFNKEVHKSGYLAGDKLLPQRVLEQHKLNKDQWEERIQVWHEEHRGMLREDAVLEYLKIAQDLEMYGVNYFSIKNKKGSELWLGVDALGLNIYEQNDRLTPKIGFPWSEIRNISFNDKKFVIKPIDKKAPDFVFYAPRLRINKRILALCMGNHELYMRRRKPDTIEVQQMKAQAREEKHQKQMERAMLENEKKKREMAEKEKEKIEREKEELMERLKQIEEQTKKAQQELEEQTRRALELEQERKRAQSEAEKLAKERQEAEEAKEALLQASRDQKKTQEQLALEMAELTARISQLEMARQKKESEAVEWQQKAQMVQEDLEKTRAELKTAMSTPHVAEPAENEQDEQDENGAEASADLRADAMAKDRSEEERTTEAEKNERVQKHLKALTSELANARDESKKTANDMIHAENMRLGRDKYKTLRQIRQGNTKQRIDEFESM
modifications: GST tag removed by thrombin
notes: Recombinant human moesin residues 1-577, expressed in E. coli as GST fusion and cleaved with thrombin
As to B1, the “effect of recombinant moesin on the inhibitory effect of DS on IL-8 and IL-1β secretion” value in the test with HT-29 cells is on record as “antagonized the inhibitory effect of the DS in a dose-dependent manner”.
